Laboratory results published in article PMC8222254, “Self-assembly of an anion receptor with metal-dependent kinase inhibition and potent in vitro anti-cancer properties” (Nature Communications, 2021).
Values joined by “and” are separate entries in the source; they are usually repeats but may differ in a detail not shown here. Equal values may be shown once.

Tests used:
Assay in all cases: Kinase inhibition screen, cell-free 33P ATP assay at 10 μM
Assay type in all cases: biochemical
[1] = molecular target: 140 purified human kinases (Homo sapiens, UniProt Q13131); conditions: AMPK (hum); for % Activity inhibition Mean / % Activity inhibition Run 1 / % Activity inhibition Run 2 / % Activity remaining Run 1 / % Activity remaining Run 2: 10 µM
Sequence of 140 purified human kinases (Homo sapiens, UniProt Q13131) (Q13131 whole entry): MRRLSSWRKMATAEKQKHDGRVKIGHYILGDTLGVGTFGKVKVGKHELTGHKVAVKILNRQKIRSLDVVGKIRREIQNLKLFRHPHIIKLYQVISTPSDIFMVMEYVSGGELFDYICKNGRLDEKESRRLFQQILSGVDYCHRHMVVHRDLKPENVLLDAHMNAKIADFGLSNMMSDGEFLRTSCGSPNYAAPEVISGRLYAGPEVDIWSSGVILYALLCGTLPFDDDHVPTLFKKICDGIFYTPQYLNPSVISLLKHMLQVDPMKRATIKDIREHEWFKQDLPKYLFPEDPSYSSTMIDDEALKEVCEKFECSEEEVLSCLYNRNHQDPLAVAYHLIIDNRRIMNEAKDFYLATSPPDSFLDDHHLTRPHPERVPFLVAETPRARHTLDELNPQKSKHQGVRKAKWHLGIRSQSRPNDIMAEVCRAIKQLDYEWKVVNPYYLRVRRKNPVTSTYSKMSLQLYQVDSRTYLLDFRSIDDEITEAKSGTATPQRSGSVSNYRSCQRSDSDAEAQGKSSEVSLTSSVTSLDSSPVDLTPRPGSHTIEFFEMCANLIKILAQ
Outline: (§1)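 Each complex tested in duplicate at 10 μM; cell-free radiometric assay using ^33P ATP on purified enzymes. Hits mapped by HGNC symbol onto the kinome tree.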

[2] = molecular target: T1, 140 purified human kinases (Homo sapiens, UniProt P54760)
T1 sequence (P54760 16-987): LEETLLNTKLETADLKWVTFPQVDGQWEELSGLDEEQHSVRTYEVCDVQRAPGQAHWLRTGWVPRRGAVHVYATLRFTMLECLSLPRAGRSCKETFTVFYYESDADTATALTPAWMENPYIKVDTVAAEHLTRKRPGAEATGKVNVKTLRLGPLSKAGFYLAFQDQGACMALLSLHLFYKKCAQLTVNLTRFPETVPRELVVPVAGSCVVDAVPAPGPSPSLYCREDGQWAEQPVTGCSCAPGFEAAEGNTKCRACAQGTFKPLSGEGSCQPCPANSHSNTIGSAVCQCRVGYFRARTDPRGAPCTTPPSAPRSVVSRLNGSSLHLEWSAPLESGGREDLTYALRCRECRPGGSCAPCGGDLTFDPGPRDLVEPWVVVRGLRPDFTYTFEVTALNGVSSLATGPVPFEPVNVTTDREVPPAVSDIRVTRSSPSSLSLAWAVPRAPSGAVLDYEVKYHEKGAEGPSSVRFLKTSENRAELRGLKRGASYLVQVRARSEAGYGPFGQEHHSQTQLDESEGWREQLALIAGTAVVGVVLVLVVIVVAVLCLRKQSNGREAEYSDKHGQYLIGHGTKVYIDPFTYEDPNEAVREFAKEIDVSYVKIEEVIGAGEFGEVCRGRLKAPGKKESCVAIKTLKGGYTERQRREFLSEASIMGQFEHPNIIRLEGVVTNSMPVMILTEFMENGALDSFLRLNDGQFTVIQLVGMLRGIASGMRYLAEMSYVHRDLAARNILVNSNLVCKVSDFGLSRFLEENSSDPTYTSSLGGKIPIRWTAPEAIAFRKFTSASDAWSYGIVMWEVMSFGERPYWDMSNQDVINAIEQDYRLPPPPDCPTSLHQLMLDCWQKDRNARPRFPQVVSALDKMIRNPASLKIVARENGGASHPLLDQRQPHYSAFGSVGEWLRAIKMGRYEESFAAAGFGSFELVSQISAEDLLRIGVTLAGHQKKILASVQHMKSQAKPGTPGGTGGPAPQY
Outline: as §1

[3] = molecular target: 140 purified human kinases (Homo sapiens, UniProt Q06187); conditions: BTK
Sequence of 140 purified human kinases (Homo sapiens, UniProt Q06187) (Q06187 whole entry): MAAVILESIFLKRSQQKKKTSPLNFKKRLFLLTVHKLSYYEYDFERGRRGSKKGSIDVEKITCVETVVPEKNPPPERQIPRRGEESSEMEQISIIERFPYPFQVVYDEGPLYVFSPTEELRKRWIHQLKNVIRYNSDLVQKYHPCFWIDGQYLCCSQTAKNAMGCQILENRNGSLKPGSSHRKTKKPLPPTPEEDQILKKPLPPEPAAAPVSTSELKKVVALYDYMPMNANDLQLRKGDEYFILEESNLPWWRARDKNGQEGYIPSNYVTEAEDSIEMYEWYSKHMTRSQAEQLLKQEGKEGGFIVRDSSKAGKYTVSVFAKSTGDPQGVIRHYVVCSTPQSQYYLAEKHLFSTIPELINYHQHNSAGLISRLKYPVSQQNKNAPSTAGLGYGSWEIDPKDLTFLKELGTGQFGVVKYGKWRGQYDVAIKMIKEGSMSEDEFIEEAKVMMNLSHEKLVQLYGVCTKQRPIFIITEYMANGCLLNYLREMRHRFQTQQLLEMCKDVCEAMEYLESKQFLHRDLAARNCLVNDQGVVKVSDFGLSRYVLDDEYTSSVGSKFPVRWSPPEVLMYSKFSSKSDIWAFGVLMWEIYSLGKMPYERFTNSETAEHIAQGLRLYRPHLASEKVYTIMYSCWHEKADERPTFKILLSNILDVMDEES
Outline: as §1

[4] = molecular target: 140 purified human kinases (Homo sapiens, UniProt Q9H4A3)
Sequence of 140 purified human kinases (Homo sapiens, UniProt Q9H4A3) (Q9H4A3 whole entry): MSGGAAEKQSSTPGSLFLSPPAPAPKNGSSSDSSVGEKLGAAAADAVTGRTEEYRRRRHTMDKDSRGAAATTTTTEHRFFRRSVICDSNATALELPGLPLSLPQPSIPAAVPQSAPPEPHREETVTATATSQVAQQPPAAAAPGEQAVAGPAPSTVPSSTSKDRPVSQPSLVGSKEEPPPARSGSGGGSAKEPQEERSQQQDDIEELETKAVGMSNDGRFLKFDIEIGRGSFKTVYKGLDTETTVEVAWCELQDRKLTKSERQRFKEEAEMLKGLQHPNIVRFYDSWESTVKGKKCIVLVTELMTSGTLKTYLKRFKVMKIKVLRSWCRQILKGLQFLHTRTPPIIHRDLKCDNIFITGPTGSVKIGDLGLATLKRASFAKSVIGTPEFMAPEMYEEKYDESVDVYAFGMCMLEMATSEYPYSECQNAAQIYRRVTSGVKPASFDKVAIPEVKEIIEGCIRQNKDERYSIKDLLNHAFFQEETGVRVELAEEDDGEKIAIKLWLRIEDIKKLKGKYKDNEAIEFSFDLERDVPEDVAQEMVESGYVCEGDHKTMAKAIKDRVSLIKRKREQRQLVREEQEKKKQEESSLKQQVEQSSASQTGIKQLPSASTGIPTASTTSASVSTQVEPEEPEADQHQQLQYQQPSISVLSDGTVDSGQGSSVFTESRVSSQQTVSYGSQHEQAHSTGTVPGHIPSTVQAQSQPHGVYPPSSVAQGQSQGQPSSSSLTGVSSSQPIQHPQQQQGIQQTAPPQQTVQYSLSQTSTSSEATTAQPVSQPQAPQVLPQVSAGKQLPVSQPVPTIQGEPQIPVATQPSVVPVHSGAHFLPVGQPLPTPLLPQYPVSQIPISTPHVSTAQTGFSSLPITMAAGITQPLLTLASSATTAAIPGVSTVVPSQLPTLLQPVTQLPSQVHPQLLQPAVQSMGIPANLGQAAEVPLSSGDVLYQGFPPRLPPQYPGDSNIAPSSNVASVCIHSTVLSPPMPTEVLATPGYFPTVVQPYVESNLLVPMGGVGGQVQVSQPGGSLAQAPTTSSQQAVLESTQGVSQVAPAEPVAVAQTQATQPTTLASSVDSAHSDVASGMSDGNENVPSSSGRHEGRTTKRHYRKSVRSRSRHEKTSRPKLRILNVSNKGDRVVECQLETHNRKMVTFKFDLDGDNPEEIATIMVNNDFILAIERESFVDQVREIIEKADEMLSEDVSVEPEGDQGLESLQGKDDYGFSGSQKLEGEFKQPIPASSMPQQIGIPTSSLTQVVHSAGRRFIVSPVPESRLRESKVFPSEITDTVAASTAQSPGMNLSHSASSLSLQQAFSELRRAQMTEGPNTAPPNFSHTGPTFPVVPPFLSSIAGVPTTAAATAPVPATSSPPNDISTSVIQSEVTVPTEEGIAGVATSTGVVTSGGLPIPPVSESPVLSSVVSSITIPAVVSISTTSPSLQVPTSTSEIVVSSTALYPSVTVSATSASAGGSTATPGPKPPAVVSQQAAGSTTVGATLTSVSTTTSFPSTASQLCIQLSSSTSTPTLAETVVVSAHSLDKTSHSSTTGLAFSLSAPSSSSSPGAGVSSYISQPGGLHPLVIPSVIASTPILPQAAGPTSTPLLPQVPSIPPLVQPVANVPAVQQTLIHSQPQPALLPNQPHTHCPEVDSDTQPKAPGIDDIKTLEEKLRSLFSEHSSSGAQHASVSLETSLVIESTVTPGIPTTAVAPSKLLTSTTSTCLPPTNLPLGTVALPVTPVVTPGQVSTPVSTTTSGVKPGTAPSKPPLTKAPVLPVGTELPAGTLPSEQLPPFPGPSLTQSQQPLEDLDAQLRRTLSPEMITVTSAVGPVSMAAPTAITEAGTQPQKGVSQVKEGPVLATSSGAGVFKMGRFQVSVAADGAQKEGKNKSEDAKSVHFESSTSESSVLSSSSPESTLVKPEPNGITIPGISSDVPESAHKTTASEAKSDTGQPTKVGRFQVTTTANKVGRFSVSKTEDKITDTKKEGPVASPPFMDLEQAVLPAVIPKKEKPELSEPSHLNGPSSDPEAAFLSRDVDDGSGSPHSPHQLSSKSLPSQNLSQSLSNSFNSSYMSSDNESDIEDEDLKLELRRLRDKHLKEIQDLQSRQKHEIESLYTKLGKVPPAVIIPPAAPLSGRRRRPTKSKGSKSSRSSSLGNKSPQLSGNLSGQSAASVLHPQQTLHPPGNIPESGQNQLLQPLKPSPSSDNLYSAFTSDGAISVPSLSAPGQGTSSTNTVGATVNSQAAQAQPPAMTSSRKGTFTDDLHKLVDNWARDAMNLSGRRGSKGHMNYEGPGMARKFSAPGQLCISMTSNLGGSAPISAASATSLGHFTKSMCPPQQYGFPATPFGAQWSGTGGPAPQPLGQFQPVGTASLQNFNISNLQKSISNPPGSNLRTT
Outline: as §1

[5] = molecular target: 140 purified human kinases (Homo sapiens, UniProt Q9Y6E0)
Sequence of 140 purified human kinases (Homo sapiens, UniProt Q9Y6E0) (Q9Y6E0 whole entry): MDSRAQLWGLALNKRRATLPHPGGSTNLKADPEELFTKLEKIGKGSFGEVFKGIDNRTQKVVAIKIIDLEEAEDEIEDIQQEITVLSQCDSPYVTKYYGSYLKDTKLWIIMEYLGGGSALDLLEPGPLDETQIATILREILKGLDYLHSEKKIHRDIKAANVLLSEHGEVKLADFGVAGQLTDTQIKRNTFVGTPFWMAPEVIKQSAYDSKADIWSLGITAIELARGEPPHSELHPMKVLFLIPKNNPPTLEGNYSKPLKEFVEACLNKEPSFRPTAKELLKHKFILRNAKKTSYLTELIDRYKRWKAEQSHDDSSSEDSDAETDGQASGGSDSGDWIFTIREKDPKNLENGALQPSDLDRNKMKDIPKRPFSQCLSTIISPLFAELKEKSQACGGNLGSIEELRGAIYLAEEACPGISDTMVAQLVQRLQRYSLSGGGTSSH
Outline: as §1

[6] = molecular target: T2, 140 purified human kinases (Homo sapiens, UniProt O00418); conditions: EF2K
T2 sequence (O00418 1-725): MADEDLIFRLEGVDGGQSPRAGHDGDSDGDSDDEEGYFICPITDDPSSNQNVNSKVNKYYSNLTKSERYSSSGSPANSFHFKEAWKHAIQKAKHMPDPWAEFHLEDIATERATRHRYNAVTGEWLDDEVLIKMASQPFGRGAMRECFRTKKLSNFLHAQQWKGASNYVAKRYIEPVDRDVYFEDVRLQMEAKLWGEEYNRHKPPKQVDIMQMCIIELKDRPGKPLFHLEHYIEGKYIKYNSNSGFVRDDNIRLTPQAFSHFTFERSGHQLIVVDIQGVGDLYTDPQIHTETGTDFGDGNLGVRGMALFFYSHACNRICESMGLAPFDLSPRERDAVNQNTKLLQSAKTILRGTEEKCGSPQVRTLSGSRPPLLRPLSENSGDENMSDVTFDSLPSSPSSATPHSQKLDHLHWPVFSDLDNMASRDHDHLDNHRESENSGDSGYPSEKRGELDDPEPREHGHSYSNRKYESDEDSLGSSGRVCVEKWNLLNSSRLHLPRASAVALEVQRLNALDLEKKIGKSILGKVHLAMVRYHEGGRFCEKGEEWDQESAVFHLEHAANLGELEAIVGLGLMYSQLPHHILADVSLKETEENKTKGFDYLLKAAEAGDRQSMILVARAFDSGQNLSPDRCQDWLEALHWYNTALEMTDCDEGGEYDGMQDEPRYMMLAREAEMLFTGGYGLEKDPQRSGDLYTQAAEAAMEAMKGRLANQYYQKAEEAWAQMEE
Outline: as §1

[7] = molecular target: 140 purified human kinases (Homo sapiens, UniProt P11309)
Sequence of 140 purified human kinases (Homo sapiens, UniProt P11309) (P11309 whole entry): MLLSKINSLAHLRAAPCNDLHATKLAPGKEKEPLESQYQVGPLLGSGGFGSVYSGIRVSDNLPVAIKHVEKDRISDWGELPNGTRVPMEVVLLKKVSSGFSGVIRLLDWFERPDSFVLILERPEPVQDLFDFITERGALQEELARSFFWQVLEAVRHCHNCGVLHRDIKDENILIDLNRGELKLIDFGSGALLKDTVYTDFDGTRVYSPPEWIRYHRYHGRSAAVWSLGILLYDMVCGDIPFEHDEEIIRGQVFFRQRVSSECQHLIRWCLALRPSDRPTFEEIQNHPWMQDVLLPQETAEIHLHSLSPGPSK
Outline: as §1

[8] = molecular target: 140 purified human kinases (Homo sapiens, UniProt Q9P286); conditions: for % Activity Run 1 / % Activity Run 2: 10 µM
Sequence of 140 purified human kinases (Homo sapiens, UniProt Q9P286) (Q9P286 whole entry): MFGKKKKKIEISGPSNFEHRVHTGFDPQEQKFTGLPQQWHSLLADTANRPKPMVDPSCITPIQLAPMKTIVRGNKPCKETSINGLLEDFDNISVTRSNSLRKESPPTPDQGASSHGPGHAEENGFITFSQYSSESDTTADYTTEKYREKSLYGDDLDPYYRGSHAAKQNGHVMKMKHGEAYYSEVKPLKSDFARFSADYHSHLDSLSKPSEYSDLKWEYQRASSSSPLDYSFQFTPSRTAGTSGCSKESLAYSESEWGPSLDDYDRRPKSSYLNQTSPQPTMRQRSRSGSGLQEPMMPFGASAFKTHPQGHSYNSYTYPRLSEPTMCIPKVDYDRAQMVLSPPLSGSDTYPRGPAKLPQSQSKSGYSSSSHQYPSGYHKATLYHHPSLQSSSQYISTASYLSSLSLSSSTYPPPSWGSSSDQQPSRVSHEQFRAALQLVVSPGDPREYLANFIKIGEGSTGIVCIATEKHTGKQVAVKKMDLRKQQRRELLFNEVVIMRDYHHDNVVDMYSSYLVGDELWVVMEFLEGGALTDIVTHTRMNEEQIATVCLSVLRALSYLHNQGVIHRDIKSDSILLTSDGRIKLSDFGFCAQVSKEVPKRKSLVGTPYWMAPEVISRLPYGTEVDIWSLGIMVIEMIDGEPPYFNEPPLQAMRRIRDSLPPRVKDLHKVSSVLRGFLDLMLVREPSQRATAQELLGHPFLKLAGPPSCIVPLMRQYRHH
Outline: as §1

Q: Which results are given for [Cu+2].[Cu+2].[Cu+2].c1ccc(-c2csc(NCCN(CCNc3nc(-c4ccccn4)cs3)CCNc3nc(-c4ccccn4)cs3)n2)nc1.c1ccc(-c2csc(NCCN(CCNc3nc(-c4ccccn4)cs3)CCNc3nc(-c4ccccn4)cs3)n2)nc1 [[L2Cu3]6+]?
A: % Inhibition Run 1 [1]: 97.2%; % Inhibition Run 2 [1]: 98.1%; % Inhibition, Mean [1]: 98%; mean % activity [1]: 2.35%; % activity ([1]; Run 1): 2.8%; % activity ([1]; Run 2): 1.9%; % Activity inhibition Mean [1]: 97.7%; % Activity inhibition Run 1 [1]: 97.2%; % Activity inhibition Run 2 [1]: 98.1%; % Activity remaining Run 1 [1]: 2.80%; % Activity remaining Run 2 [1]: 1.90%; % Inhibition Run 1 ([2]; EPH-B4): 53.6%; % Inhibition Run 2 ([2]; EPH-B4): 47.1%; % Inhibition, Mean ([2]; EPH-B4): 50%; mean % activity ([2]; EPH-B4): 50%; % activity ([2]; EPH-B4, Run 1): 46.4%; % activity ([2]; EPH-B4, Run 2): 52.9%; % Inhibition Run 1 [3]: 88.8%; % Inhibition Run 2 [3]: 82.3%; % Inhibition, Mean [3]: 86%; mean % activity [3]: 14%; % activity ([3]; Run 1): 11.2%; % activity ([3]; Run 2): 17.7%; % Inhibition Run 1 ([4]; WNK1): 12.1%; % Inhibition Run 2 ([4]; WNK1): -2.6%; % Inhibition, Mean ([4]; WNK1): 4.75%; mean % activity ([4]; WNK1): 95%; % activity ([4]; WNK1, Run 1): 87.9%; % activity ([4]; WNK1, Run 2): 102.6%; % Inhibition Run 1 ([5]; MST3): 9.9%; % Inhibition Run 2 ([5]; MST3): -5.7%; % Inhibition, Mean ([5]; MST3): 2%; mean % activity ([5]; MST3): 98%; % activity ([5]; MST3, Run 1): 90.1%; % activity ([5]; MST3, Run 2): 105.7%; % Inhibition Run 1 [6]: 60.6%; % Inhibition Run 2 [6]: 65.9%; % Inhibition, Mean [6]: 63%; mean % activity [6]: 37%; % activity ([6]; Run 1): 39.4%; % activity ([6]; Run 2): 34.1%; % Inhibition Run 1 ([7]; PIM1): 53.7%; % Inhibition Run 2 ([7]; PIM1): 42%; % Inhibition, Mean ([7]; PIM1): 48%; mean % activity ([7]; PIM1): 52%; % activity ([7]; PIM1, Run 1): 46.3%; % activity ([7]; PIM1, Run 2): 58%; % Activation, Mean value ([8]; PAK5): 10%; % Inhibition Run 1 ([8]; PAK5): -1.8%; % Inhibition Run 2 ([8]; PAK5): -17.5%; % Inhibition, Mean ([8]; PAK5): -10%; mean % activity ([8]; PAK5): 110%; % activity ([8]; PAK5, Run 1): 101.8%; % activity ([8]; PAK5, Run 2): 117.5%; % Activity Run 1 ([8]; PAK5): 101.80%; % Activity Run 2 ([8]; PAK5): 117.50%

Q: For CC(=O)[O-].CC(=O)[O-].CC(=O)[O-].CC(=O)[O-].CC(=O)[O-].CC(=O)[O-].[Zn+2].[Zn+2].[Zn+2].c1ccc(-c2csc(NCCN(CCNc3nc(-c4ccccn4)cs3)CCNc3nc(-c4ccccn4)cs3)n2)nc1.c1ccc(-c2csc(NCCN(CCNc3nc(-c4ccccn4)cs3)CCNc3nc(-c4ccccn4)cs3)n2)nc1 [[L2Zn3]6+], which “% Inhibition, Mean” value [1] is on record?
A: 93%

Q: What about the “% Inhibition, Run 1 / Run 2” value [1] of the same molecule?
A: 94% and 92%

Q: And the mean % activity [1]?
A: 7%

Q: What about the “% Activity inhibition Mean” value [1] of the same molecule?
A: 93.0%

Q: And the “% Activity inhibition Run 1” value [1]?
A: 94%

Q: What about the “% Activity inhibition Run 2” value [1] of the same molecule?
A: 92%

Q: And the “% Activity remaining Run 1” value [1]?
A: 6%

Q: What about the “% Activity remaining Run 2” value [1] of the same molecule?
A: 8%

Q: And the “% activity” value ([1]; duplicate runs)?
A: 6.4% and 8%

Q: And the “% Inhibition, Mean” value ([2]; EPH-B4)?
A: 52%

Q: What about the “% Inhibition, Run 1 / Run 2” value ([2]; EPH-B4) of the same molecule?
A: 52%

Q: What about the mean % activity ([2]; EPH-B4) of the same molecule?
A: 48%

Q: What about the “% activity” value ([2]; EPH-B4, duplicate runs) of the same molecule?
A: 48%

Q: And the “% Inhibition, Mean” value [3]?
A: 47%

Q: What about the “% Inhibition, Run 1 / Run 2” value [3] of the same molecule?
A: 56% and 39%

Q: What about the mean % activity [3] of the same molecule?
A: 53%

Q: And the “% activity” value ([3]; duplicate runs)?
A: 45% and 61%

Q: What about the “% Inhibition, Mean” value ([4]; WNK1) of the same molecule?
A: 2.3%

Q: What about the mean % activity ([4]; WNK1) of the same molecule?
A: 98%

Q: What about the “% activity” value ([4]; WNK1, duplicate runs) of the same molecule?
A: 90% and 106%

Q: And the “% Inhibition, Mean” value ([5]; MST3)?
A: 0.4%

Q: What about the “% Inhibition, Run 1 / Run 2” value ([5]; MST3) of the same molecule?
A: -3.6% and 4.4%

Q: What about the mean % activity ([5]; MST3) of the same molecule?
A: 100%

Q: What about the “% activity” value ([5]; MST3, duplicate runs) of the same molecule?
A: 104% and 96%

Q: And the “% Activation, Mean value” [6]?
A: 0.8%

Q: What about the “% Inhibition, Mean” value [6] of the same molecule?
A: -0.8%

Q: What about the “% Inhibition, Run 1 / Run 2” value [6] of the same molecule?
A: 2% and -3.6%

Q: What about the mean % activity [6] of the same molecule?
A: 101%

Q: And the “% activity” value ([6]; duplicate runs)?
A: 98% and 104%

Q: And the “% Inhibition, Mean” value ([7]; PIM1)?
A: 26%

Q: What about the “% Inhibition, Run 1 / Run 2” value ([7]; PIM1) of the same molecule?
A: 28% and 23%

Q: And the mean % activity ([7]; PIM1)?
A: 74%

Q: What about the “% activity” value ([7]; PIM1, duplicate runs) of the same molecule?
A: 72% and 77%

Q: And the “% Activation, Mean value” ([8]; PAK5)?
A: 20%

Q: What about the “% Inhibition, Mean” value ([8]; PAK5) of the same molecule?
A: -20%

Q: And the mean % activity ([8]; PAK5)?
A: 120%

Q: And the “% Activity Run 1” value ([8]; PAK5)?
A: 110.0%

Q: What about the “% Activity Run 2” value ([8]; PAK5) of the same molecule?
A: 130.0%

Q: What about the “% activity” value ([8]; PAK5, duplicate runs) of the same molecule?
A: 110% and 130%
